According to patent publication US12240857B2 (priority 2017, dated 2025):
pEC50: −log10 of the molar value. Like-named read-outs stand apart in the source and are kept apart here.

Columns and labels:
[1] = system: EBOV mucin-domain-deleted glycoprotein pseudotyped VSV; test: microbe, parasite or virus in culture; assay type: cell-based, Zaire ebolavirus; details: Zaire ebolavirus, Vero, read-out: EC50 EBOV
[2] = system: BDBV mucin-domain-deleted glycoprotein pseudotyped VSV; test: microbe, parasite or virus in culture; assay type: cell-based, Bundibugyo ebolavirus; details: Vesicular stomatitis virus, Vero, read-out: EC50 BDBV
in vitro = details: African green monkey, CC50

| Compound | pEC50 [1] | pEC50 [2] | CC50 (in vitro) [nM] | pEC50 ([1]; 24 h) | pEC50 ([2]; 24 h) |
| --- | --- | --- | --- | --- | --- |
| CC12CC3CC(C(=O)NCCN4CCOCC4)(C1)CC(c1ccccc1)(C3)C2 (stereo not drawn) [Example A48] | 5.98 | 5.70 | 54900 |  |  |
| CC(NC(=O)Cn1nnc(-c2ccco2)n1)C12CC3CC(CC(C3)C1)C2 (stereo not drawn) [Example D47, N-[1-(adamantan-1-yl)ethyl]-2-[5-(furan-2-yl)-2H-1,2,3,4-tetrazol-2-yl]acetamide] |  |  | > 10000 | 5.03 | 5.27 |
| O=C(N1CCC(NCc2ccccc2)CC1)C12CC3CC(C1)CC(c1ccccc1)(C3)C2 [Example A49, N-Benzyl-1-[(3-phenyladamantan-1-yl)carbonyl]piperidin-4-amine] | 6.68 | 6.54 | 10000 |  |  |
| COC(=O)C12CC3CC(C(=O)N[C@H]4CC[C@H](N)CC4)(C1)CC(c1ccccc1)(C3)C2 (stereo partly drawn) [Example A115] | 6.01 | < 6.00 | 59000 |  |  |
| O=C(CC12CC3CC(C1)CC(c1ccccc1)(C3)C2)NCC(=O)N[C@@H]1CCN(Cc2ccccc2)C1 [Example A13] | 6.49 | 6.49 | 2300 |  |  |
| O=C(CNC(=O)C12CC3CC(C1)CC(c1ccccc1)(C3)C2)N1CCC2(CCN(Cc3ccccc3)C2)C1 (stereo not drawn) [Example A2] | 6.52 | 6.41 | 8500 |  |  |
| COC(=O)c1ccc(COc2ccccc2CN2CC3CC2CN3C(=O)CNC(=O)CC23CC4CC(CC(C4)C2)C3)cc1 (stereo not drawn) [Example A58] | 6.19 | 5.10 | > 10000 |  |  |
| CC12CC3CC(C(=O)NCc4ncc[nH]4)(C1)CC(c1ccccc1)(C3)C2 (stereo not drawn) [Example A202, N-(1H-imidazol-2-ylmethyl)-3-methyl-5-phenyladamantane-1-carboxamide] | 6.23 | 6.02 | 41500 |  |  |
| COC(=O)c1ccc(COc2ccccc2CN2CCN(C(=O)CNC(=O)CC34CC5CC(C3)CC(c3ccccc3)(C5)C4)CC2)cc1 [Example A4] | 6.72 | 5.91 | > 3000 |  |  |
| CN1CCN(CC(O)CCOc2ccc(C34CC5CC(CC(C5)C3)C4)cc2)CC1 (stereo not drawn) [Example C9, 4-(4-(adamantan-1-yl)phenoxy)-1-(4-methylpiperazin-1-yl)butan-2-ol] | 6.18 | 6.00 | 8300 |  |  |
| CC1CCN(C[C@@H](O)COCCC23CC4CC(C2)CC(c2ccccc2)(C4)C3)CC1 [Example C13, (2R)-1-(4-methylpiperidin-1-yl)-3-[2-(3-phenyladamantan-1-yl)ethoxy]propan-2-ol] | 6.77 | 6.96 | 3600 |  |  |
| CC1CCN(CC(O)COCCC23CC4CC(CC(C4)C2)C3)CC1 (stereo not drawn) [Example D10, 1-[2-(adamantan-1-yl)ethoxy]-3-(4-methylpiperidin-1-yl) propan-2-ol] |  |  | 15500 | 6.49 | 6.85 |
| COC(=O)c1ccc(COc2ccccc2CN2CCN(C(=O)CNC(=O)C34CC5CC(C3)CC(c3ccccc3)(C5)C4)CC2)cc1 [Example A3] | 7.52 | 5.91 | > 3000 |  |  |
| O=C(N1CCN(Cc2ccccc2)CC1)C12CC3CC(C1)CC(c1ccccc1)(C3)C2 [Example A29] | 6.47 | 6.57 | 5800 |  |  |
| CN1CC[C@@H](NC(=O)C23CC4CC(C2)CC(c2ccccc2)(C4)C3)C1 [Example A37] | 6.64 | 6.62 | > 10000 |  |  |
| O=C(N1CCN(Cc2ccccc2)CC1)C12CC3CC(CC1C3)C2 [Example A28] | < 5.00 | < 5.00 | > 10000 |  |  |
| O=C(N1CCC2(CCN(Cc3ccccc3)C2)C1)C12CC3CC(C1)CC(c1ccccc1)(C3)C2 (stereo not drawn) [Example A1, 2-benzyl-7-[(3-phenyladamantan-1-yl)carbonyl]-2,7-diazaspiro[4.4]nonane] | 6.66 | 6.60 | 5800 |  |  |
| NCc1ccc(NCC23CC4CC(C2)CC(c2ccccc2)(C4)C3)nc1 [Example C16, 5-(aminomethyl)-N-[(3-phenyladamantan-1-yl)methyl]pyridin-2-amine] | 6.01 | 6.12 | 8000 |  |  |
| O=C(NC1CCNCC1)NC12CC3CC(C1)CC(c1ccccc1)(C3)C2 [Example E1, 3-(3-phenyladamantan-1-yl)-1-(piperidin-4-yl)urea] | < 6.00 | 6.11 | 18300 |  |  |
| Nc1ccc(C23CC4CC(CC(C4)C2)C3)cc1 [Example D36, 4-(adamantan-1-yl)aniline] |  |  | > 10000 | 5.38 | 5.21 |
| CC12CC3CC(C(=O)NC4CCNCC4(F)F)(C1)CC(c1ccccc1)(C3)C2 (stereo not drawn) [Example A109] | 7.10 | 6.03 | 37000 |  |  |
| CC12CC3CC(C(=O)NC4CC5(CC(N)C5)C4)(C1)CC(c1ccccc1)(C3)C2 (stereo not drawn) [Example A90] | 7.30 | 6.70 | 59000 |  |  |
| N[C@H]1CC[C@H](NC(=O)NC23CC4CC(C2)CC(c2ccccc2)(C4)C3)CC1 [Example E2, 1-(4-aminocyclohexyl)-3-(3-phenyladamantan-1-yl)urea] | 6.06 | 6.21 | 12600 |  |  |
